The source made the active and inactive calls.
Experiments:
Prothrombin = Prothrombin (Homo sapiens, UniProt P00734); assay: Thrombin 1536 HTS Dose Response Confirmation. [Related pubchem assays: 1046 (Thrombin 1536 HTS; hits were confirmed in this assay)]; format: functional
[1] = Luminescence Cell-Based Dose Response HTS to Identify Activators of Luciferase Translation or Activity in H4 […] Cells. [Related pubchem assays: 1829 (Project Summary), 1814 (Primary HTS)]; format: functional
H4 = assay: Luminescence Cell-Based Dose Response HTS to Identify Activators of 5'UTR Stem-Loop Driven Prion Protein mRNA Translation in H4 Neuroglioblastoma Cells. [Related pubchem assays: 1829 (Project Summary), 1814 (Primary HTS)]; format: functional; conditions: Homo sapiens
[2] = Luminescence Cell-Based Dose Confirmation HTS to Identify Activators of 5'UTR Stem-Loop Driven Alpha-Synuclein mRNA Translation in H4 Neuroglioblastoma Cells. [Related pubchem assays: 1829 (Project Summary), 1814 (Primary HTS)]; format: functional
Cytochrome P450 2C9 = Cytochrome P450 2C9 (Homo sapiens, UniProt P11712)
Sequence of Cytochrome P450 2C9 (P11712 whole entry): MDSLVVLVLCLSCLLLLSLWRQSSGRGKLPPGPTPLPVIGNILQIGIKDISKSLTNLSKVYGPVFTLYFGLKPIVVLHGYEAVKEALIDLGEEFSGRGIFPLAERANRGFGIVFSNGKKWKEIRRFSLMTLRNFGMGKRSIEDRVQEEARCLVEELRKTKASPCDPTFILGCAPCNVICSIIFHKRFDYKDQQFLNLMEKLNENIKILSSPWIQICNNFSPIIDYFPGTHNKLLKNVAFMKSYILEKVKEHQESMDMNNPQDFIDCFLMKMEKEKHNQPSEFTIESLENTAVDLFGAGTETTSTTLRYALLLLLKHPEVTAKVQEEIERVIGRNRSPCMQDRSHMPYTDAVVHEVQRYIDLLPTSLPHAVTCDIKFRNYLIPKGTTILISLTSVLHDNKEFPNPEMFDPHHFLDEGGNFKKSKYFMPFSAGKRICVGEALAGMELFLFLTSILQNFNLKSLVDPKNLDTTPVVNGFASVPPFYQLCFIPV

[3] = target: T1, Heat shock factor protein 1 (Mus musculus, UniProt P38532); assay: inhibition of MG132-induced HSE-luciferase signal, confirmation, cell-based, NIH3T3, luminescence, dose retest (AID 2382); format: functional;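 also: NIH3T3 fibroblasts with HSF1-driven luciferase reporter stressed by proteasome inhibitor MG132; luminescence from HSF1-driven luciferase expression after 8 hours of MG132 stress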
T1 sequence (P38532 whole entry): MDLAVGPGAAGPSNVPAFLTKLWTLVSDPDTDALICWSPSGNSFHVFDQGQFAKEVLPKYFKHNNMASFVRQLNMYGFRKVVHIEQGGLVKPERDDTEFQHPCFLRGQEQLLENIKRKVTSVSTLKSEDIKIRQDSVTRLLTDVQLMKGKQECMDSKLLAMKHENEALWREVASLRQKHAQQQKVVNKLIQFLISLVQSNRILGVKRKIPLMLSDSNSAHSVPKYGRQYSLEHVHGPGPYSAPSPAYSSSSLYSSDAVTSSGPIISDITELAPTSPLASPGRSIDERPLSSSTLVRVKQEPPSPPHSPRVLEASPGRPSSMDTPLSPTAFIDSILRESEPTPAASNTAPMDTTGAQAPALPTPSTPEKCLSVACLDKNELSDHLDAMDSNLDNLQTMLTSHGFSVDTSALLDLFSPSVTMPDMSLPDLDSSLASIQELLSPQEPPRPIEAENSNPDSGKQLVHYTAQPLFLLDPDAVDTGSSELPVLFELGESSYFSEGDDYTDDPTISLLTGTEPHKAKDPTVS

[4] = target: Glyceraldehyde-3-phosphate dehydrogenase (Homo sapiens, UniProt P04406)
Sequence of Glyceraldehyde-3-phosphate dehydrogenase (P04406 whole entry): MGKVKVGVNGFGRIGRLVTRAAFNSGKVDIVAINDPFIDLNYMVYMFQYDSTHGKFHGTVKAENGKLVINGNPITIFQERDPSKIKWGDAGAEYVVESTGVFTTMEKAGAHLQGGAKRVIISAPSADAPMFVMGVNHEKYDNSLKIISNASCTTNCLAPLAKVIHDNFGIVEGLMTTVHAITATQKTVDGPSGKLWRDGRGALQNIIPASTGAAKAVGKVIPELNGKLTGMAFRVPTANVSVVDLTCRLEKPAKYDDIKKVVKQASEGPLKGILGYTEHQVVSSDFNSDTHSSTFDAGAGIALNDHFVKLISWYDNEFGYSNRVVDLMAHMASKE

[5] = target: T2, DNA dC->dU-editing enzyme APOBEC-3G (Homo sapiens, UniProt Q9HC16); format: functional
T2 sequence (Q9HC16 whole entry): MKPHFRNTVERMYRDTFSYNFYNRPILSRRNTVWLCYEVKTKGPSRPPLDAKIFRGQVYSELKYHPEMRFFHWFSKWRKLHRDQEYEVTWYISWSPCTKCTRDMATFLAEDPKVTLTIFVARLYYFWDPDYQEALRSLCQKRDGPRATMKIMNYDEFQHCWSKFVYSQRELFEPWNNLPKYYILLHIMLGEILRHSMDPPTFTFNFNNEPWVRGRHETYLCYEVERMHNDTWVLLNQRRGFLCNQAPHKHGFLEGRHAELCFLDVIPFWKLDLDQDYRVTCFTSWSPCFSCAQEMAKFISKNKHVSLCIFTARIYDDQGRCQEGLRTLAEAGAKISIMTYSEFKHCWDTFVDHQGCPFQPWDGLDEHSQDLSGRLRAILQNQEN

[6] = target: DNA dC->dU-editing enzyme APOBEC-3A (Homo sapiens, UniProt P31941); assay: Dose Response confirmation of small molecule APOBEC3A DNA Deaminase Inhibitors via a fluorescence-based single-stranded DNA deaminase assay. [Related pubchem assays (depositor defined):AID493011, AID493024]; format: functional
Sequence of DNA dC->dU-editing enzyme APOBEC-3A (P31941 whole entry): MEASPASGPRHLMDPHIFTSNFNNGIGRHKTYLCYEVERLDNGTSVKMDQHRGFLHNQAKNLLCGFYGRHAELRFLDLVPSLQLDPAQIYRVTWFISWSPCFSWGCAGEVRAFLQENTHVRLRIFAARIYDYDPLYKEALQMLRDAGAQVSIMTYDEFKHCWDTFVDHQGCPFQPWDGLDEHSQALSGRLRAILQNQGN

HEK293 = assay: inhibitors of LMP1-driven NF-kB reporter, dose response, cell-based, HEK293, luciferase, cherry-pick (AID 588343); format: functional; conditions: Homo sapiens
[7] = LGR2 antagonists, dose response, cell-based, HEK293, CRE-luciferase reporter, cherry pick, set 2 (AID 743343); format: functional;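 also: transfected cells were stimulated with diluted bursicon conditioned medium after compound addition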
[8] = MC4R antagonists, dose response, counter-screen for LGR2 antagonist project, cell-based, plate reader, cherry pick (AID 743444); format: functional;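 also: transfected HEK 293 cells stimulated with alpha-MSH peptide; potency of inhibitors of the alpha-MSH evoked signal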
[9] = HEK293 cell cytotoxicity, dose response, cytotoxicity control, plate reader, cherry-picked samples (AID 743446); format: functional, cell-based
[10] = HepG2 cell cytotoxicity, dose response, cytotoxicity control, plate reader, cherry-pick, antagonist series (AID 743416); format: functional, cell-based
[11] = target: T2, DNA dC->dU-editing enzyme APOBEC-3G; assay: Dose Response confirmation of small molecule APOBEC3G DNA Deaminase Inhibitors via a fluorescence-based single-stranded DNA deaminase assay. [Related pubchem assays (depositor defined):AID493012, AID493028]; format: functional
[12] = A cytotoxicity screen of small molecule inhibitors of the PhoP region in Salmonella typhi identified in the primary screen. [Related pubchem assays: 1850, 1864, 1985 ]; format: functional
[13] = target: Induced myeloid leukemia cell differentiation protein Mcl-1 (Homo sapiens, UniProt Q07820); format: functional
Sequence of Induced myeloid leukemia cell differentiation protein Mcl-1 (Q07820 whole entry, the tested form may be a part): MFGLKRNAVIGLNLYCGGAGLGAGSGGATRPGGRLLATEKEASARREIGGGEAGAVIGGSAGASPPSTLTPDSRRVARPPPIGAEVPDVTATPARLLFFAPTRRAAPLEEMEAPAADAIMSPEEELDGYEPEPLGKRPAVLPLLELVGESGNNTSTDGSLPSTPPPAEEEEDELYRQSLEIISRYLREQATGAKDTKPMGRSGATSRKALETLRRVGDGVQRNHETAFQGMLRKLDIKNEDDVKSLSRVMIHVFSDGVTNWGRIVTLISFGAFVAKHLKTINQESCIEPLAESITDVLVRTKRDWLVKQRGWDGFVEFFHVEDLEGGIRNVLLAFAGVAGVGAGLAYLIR

[14] = target: T3, Carboxy-terminal domain RNA polymerase II polypeptide A small phosphatase 1 (Homo sapiens, UniProt Q9GZU7); assay: inhibitors of CTDSP1, concentration-response testing, biochemical assay, absorbance-based, actives from ultra-high-throughput screening (AID 540297); format: functional
T3 sequence (Q9GZU7 whole entry): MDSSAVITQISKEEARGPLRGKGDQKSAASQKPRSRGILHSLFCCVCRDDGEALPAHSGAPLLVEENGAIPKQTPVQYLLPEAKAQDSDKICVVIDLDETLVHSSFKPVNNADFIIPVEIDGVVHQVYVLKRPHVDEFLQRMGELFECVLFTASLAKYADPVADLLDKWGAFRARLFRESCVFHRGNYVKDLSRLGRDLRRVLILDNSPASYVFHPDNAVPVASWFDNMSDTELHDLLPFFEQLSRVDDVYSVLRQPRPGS

[15] = target: Luciferin 4-monooxygenase (Photinus pyralis, UniProt P08659); assay: firefly luciferase enzyme inhibitors, dose response, biochemical, luminescence (AID 1891)
Sequence of Luciferin 4-monooxygenase (P08659 whole entry): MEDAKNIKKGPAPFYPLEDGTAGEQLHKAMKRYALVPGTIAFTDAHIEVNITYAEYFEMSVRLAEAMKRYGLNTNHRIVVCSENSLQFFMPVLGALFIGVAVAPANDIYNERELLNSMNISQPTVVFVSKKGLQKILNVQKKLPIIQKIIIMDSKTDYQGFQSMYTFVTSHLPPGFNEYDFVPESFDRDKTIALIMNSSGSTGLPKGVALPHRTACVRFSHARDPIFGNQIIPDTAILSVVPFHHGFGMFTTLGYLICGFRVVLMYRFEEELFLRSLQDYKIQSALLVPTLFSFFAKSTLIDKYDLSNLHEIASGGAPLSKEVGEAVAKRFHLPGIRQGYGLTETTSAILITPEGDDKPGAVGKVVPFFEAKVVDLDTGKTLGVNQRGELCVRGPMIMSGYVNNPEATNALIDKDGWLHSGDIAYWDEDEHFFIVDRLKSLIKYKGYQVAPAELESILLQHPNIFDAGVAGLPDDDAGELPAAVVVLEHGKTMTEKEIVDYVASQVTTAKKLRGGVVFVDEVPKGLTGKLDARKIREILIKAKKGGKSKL

[16] = Luminescence Cell-Based Dose Confirmation HTS to Identify Inhibitors of Platelet Dense Granule Release. [Related pubchem assays: 1663 (Primary HTS), 1678 (Summary of Project)]; format: functional

O=C(c1ccccc1)n1nnc2ccccc21
IC50 (Prothrombin): 0.431 µM (active)

CC1=C(C(=O)Nc2ccccc2)C(c2ccc(O)cc2)N2C(=O)CSC2=N1 (stereo not drawn)
IC50 (Prothrombin): 25.2 µM (active)

COc1ccccc1C(=O)NC(=S)N1CCCc2ccccc21
EC50 [1]: 9.63 µM (active)
EC50 (H4): 31.6 µM (active)
EC50 [2]: 29.9 µM (active)
AC50 (Cytochrome P450 2C9): inconclusive
EC50 [3]: 16.2 µM (active)

O=C1C(Cl)=C(N2CCN(Cc3ccc4c(c3)OCO4)CC2)C(=O)N1c1ccc(C(F)(F)F)cc1
IC50 [4]: > 50 µM (inconclusive)

CCN1C(NCCOC)=N[C@@H](c2cccs2)C(C(=O)OC)=C1C
IC50 [5]: 8.01 µM (active)
IC50 [6]: 4.37 µM (active)

COC(=O)C1=C(C)N(Cc2ccccc2)C(NCCCCO)=N[C@H]1c1cccc(C(F)(F)F)c1
IC50 [5]: 7.1 µM (active)
IC50 [6]: 4.94 µM (active)

O=C(Nc1ccccc1)c1cn2ccccc2n1
AC50 (HEK293): 3.47 µM (active)
AC50 [7]: 6.06 µM (active)
AC50 [8]: 6.74 µM (active)
AC50 [9]: 48.4 µM (active)
AC50 [10]: > 52 µM (inactive)

COc1ccccc1OC(C)C(=O)N1CCN(Cc2ccc3c(c2)OCO3)CC1 (stereo not drawn)
IC50 [5]: 8.33 µM (active)
IC50 [6]: 7.43 µM (active)

COc1ccc(NC(=S)c2ccc3ccccc3n2)cc1
IC50 [11]: 66.5 µM (active)

CN(Cc1ccccc1)CC(O)COc1ccc(CNCCCOc2cccnc2)cc1 (stereo not drawn)
EC50 [12]: > 50 µM (active)

CCN(c1ccc(NC(=O)COC(=O)/C=C/c2cccs2)cc1)C(C)C
IC50 [13]: 3.34 µM (active)

O=C1CCCC(O)=C1Sc1ccccc1C(=O)O
IC50 [5]: 43.8 µM (active)
IC50 [6]: 13.3 µM (active)

CC(C)c1ccc2oc(=O)cc(CN3CCN(c4ccc(F)cc4)CC3)c2c1
EC50 [12]: > 50 µM (active)

Cc1ccc(S(=O)(=O)N2CCN(C(=O)C3COc4ccccc4O3)CC2)cc1C (stereo not drawn)
AC50 (Cytochrome P450 2C9): inconclusive

Cn1cnc(C(=O)N2CCN(c3ccccc3)CC2)c1C(=O)N1CCN(c2ccccc2)CC1
IC50 [5]: 6.53 µM (active)
IC50 [6]: 2.75 µM (active)
IC50 [14]: 7.05 µM (active)

CC(=O)c1c(C)[nH]c(C(=O)CSc2nnc(-c3ccc(Cl)cc3)n2CC2CCCO2)c1C (stereo not drawn)
EC50 [15]: > 112 µM (not active)
EC50 [16]: > 112 µM (not active)
EC50 [12]: > 50 µM (active)

Cc1cc2ncn(C(=O)c3ccc4c(c3)OCO4)c2cc1C
IC50 (Prothrombin): 5.76 µM (active)
